# Laboratory results as given in PubChem BioAssay AID2060503 (Molecular Pharmacology Branch, DTP, NCI, 2025).
# Test system: 817829-284-R-J1-PDC complex spheroids, viability
# Assay: Anticancer human tumor 817829-284-R-J1-PDC patient-derived colon adenocarcinoma cell line growth inhibition [GQUAD]
# Settings: second compound 0.316 µM; first compound 1 µM; active compounds read low
# Summary of the method: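 Multi-cell-type spheroids of tumor cells with HUVEC and mesenchymal stem cells, treated with drug combinations. Concentrations descend in half-log steps from near clinical Cmax, or from 10 microM where Cmax is unknown; viability read-out.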
# 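Note: spheroids exposed to agents for 7 days before readout; percent viability relative to DMSO vehicle control taken as 100%.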
row,SMILES,"viability, T/C [%]"
1,COc1ncnc(C2CC2)c1-c1ncc2cnn(Cc3ccc(-c4nc(C(F)(F)F)cn4C(C)C)cc3)c2n1 + Cc1[nH]c2ccc(F)cc2c1-c1nc2c3cccnc3c3ncccc3c2[nH]1,94.2
2,C=CC(=O)N1CCN(c2nc(=O)n(-c3c(C)ccnc3C(C)C)c3nc(-c4c(O)cccc4F)c(F)cc23)C(C)C1 (stereo unspecified) + Cc1cnc(CNC(=O)c2c(=O)c3ccc(N4CCCN(C)CC4)nc3n3c2sc2ccccc23)cn1,24.9
3,CC(C)n1c(=O)n(C)c2cnc3cc(F)c(-c4ccc(OCCCN5CCCCC5)nc4)cc3c21 + Cc1cnc(CNC(=O)c2c(=O)c3ccc(N4CCCN(C)CC4)nc3n3c2sc2ccccc23)cn1,21.5
4,COc1ccc([C@@H](O)c2cc(-c3ncnc4cc(N5CCOCC5)ccc34)c(F)cc2Cl)nn1 + Cc1cnc(CNC(=O)c2c(=O)c3ccc(N4CCCN(C)CC4)nc3n3c2sc2ccccc23)cn1,22
5,Nc1ccn(C2OC(CO)C(O)C2(F)F)c(=O)n1 (stereo unspecified) + Cc1cnc(CNC(=O)c2c(=O)c3ccc(N4CCCN(C)CC4)nc3n3c2sc2ccccc23)cn1,7.77
6,O=C(c1cc(Cc2n[nH]c(=O)c3ccccc23)ccc1F)N1CCN(C(=O)C2CC2)CC1 + Cc1cnc(CNC(=O)c2c(=O)c3ccc(N4CCCN(C)CC4)nc3n3c2sc2ccccc23)cn1,23.7
7,O=c1[nH]cc(F)c(=O)[nH]1 + Cc1cnc(CNC(=O)c2c(=O)c3ccc(N4CCCN(C)CC4)nc3n3c2sc2ccccc23)cn1,26.8

# Same assay, conditions: second compound 0.316 µM; first compound 3.16 µM; active compounds read low
row,SMILES,"viability, T/C [%]"
1,COc1ncnc(C2CC2)c1-c1ncc2cnn(Cc3ccc(-c4nc(C(F)(F)F)cn4C(C)C)cc3)c2n1 + Cc1[nH]c2ccc(F)cc2c1-c1nc2c3cccnc3c3ncccc3c2[nH]1,110
2,C=CC(=O)N1CCN(c2nc(=O)n(-c3c(C)ccnc3C(C)C)c3nc(-c4c(O)cccc4F)c(F)cc23)C(C)C1 (stereo unspecified) + Cc1cnc(CNC(=O)c2c(=O)c3ccc(N4CCCN(C)CC4)nc3n3c2sc2ccccc23)cn1,29.5
3,CC(C)n1c(=O)n(C)c2cnc3cc(F)c(-c4ccc(OCCCN5CCCCC5)nc4)cc3c21 + Cc1cnc(CNC(=O)c2c(=O)c3ccc(N4CCCN(C)CC4)nc3n3c2sc2ccccc23)cn1,24.4
4,COc1ccc([C@@H](O)c2cc(-c3ncnc4cc(N5CCOCC5)ccc34)c(F)cc2Cl)nn1 + Cc1cnc(CNC(=O)c2c(=O)c3ccc(N4CCCN(C)CC4)nc3n3c2sc2ccccc23)cn1,22.8
5,Nc1ccn(C2OC(CO)C(O)C2(F)F)c(=O)n1 (stereo unspecified) + Cc1cnc(CNC(=O)c2c(=O)c3ccc(N4CCCN(C)CC4)nc3n3c2sc2ccccc23)cn1,4.4
6,O=C(c1cc(Cc2n[nH]c(=O)c3ccccc23)ccc1F)N1CCN(C(=O)C2CC2)CC1 + Cc1cnc(CNC(=O)c2c(=O)c3ccc(N4CCCN(C)CC4)nc3n3c2sc2ccccc23)cn1,26.4
7,O=c1[nH]cc(F)c(=O)[nH]1 + Cc1cnc(CNC(=O)c2c(=O)c3ccc(N4CCCN(C)CC4)nc3n3c2sc2ccccc23)cn1,26.7

# Same assay, conditions: second compound 0.316 µM; first compound 10 µM; active compounds read low
row,SMILES,"viability, T/C [%]"
1,COc1ncnc(C2CC2)c1-c1ncc2cnn(Cc3ccc(-c4nc(C(F)(F)F)cn4C(C)C)cc3)c2n1 + Cc1[nH]c2ccc(F)cc2c1-c1nc2c3cccnc3c3ncccc3c2[nH]1,129
2,C=CC(=O)N1CCN(c2nc(=O)n(-c3c(C)ccnc3C(C)C)c3nc(-c4c(O)cccc4F)c(F)cc23)C(C)C1 (stereo unspecified) + Cc1cnc(CNC(=O)c2c(=O)c3ccc(N4CCCN(C)CC4)nc3n3c2sc2ccccc23)cn1,20.5
3,CC(C)n1c(=O)n(C)c2cnc3cc(F)c(-c4ccc(OCCCN5CCCCC5)nc4)cc3c21 + Cc1cnc(CNC(=O)c2c(=O)c3ccc(N4CCCN(C)CC4)nc3n3c2sc2ccccc23)cn1,9.33
4,COc1ccc([C@@H](O)c2cc(-c3ncnc4cc(N5CCOCC5)ccc34)c(F)cc2Cl)nn1 + Cc1cnc(CNC(=O)c2c(=O)c3ccc(N4CCCN(C)CC4)nc3n3c2sc2ccccc23)cn1,18
5,Nc1ccn(C2OC(CO)C(O)C2(F)F)c(=O)n1 (stereo unspecified) + Cc1cnc(CNC(=O)c2c(=O)c3ccc(N4CCCN(C)CC4)nc3n3c2sc2ccccc23)cn1,3.63
6,O=C(c1cc(Cc2n[nH]c(=O)c3ccccc23)ccc1F)N1CCN(C(=O)C2CC2)CC1 + Cc1cnc(CNC(=O)c2c(=O)c3ccc(N4CCCN(C)CC4)nc3n3c2sc2ccccc23)cn1,27.4
7,O=c1[nH]cc(F)c(=O)[nH]1 + Cc1cnc(CNC(=O)c2c(=O)c3ccc(N4CCCN(C)CC4)nc3n3c2sc2ccccc23)cn1,23.3

# Same assay, conditions: second compound 1 µM; first compound 0.0316 µM; active compounds read low
row,SMILES,"viability, T/C [%]"
1,COc1ncnc(C2CC2)c1-c1ncc2cnn(Cc3ccc(-c4nc(C(F)(F)F)cn4C(C)C)cc3)c2n1 + Cc1[nH]c2ccc(F)cc2c1-c1nc2c3cccnc3c3ncccc3c2[nH]1,118
2,C=CC(=O)N1CCN(c2nc(=O)n(-c3c(C)ccnc3C(C)C)c3nc(-c4c(O)cccc4F)c(F)cc23)C(C)C1 (stereo unspecified) + Cc1cnc(CNC(=O)c2c(=O)c3ccc(N4CCCN(C)CC4)nc3n3c2sc2ccccc23)cn1,18.8
3,CC(C)n1c(=O)n(C)c2cnc3cc(F)c(-c4ccc(OCCCN5CCCCC5)nc4)cc3c21 + Cc1cnc(CNC(=O)c2c(=O)c3ccc(N4CCCN(C)CC4)nc3n3c2sc2ccccc23)cn1,19.7
4,COc1ccc([C@@H](O)c2cc(-c3ncnc4cc(N5CCOCC5)ccc34)c(F)cc2Cl)nn1 + Cc1cnc(CNC(=O)c2c(=O)c3ccc(N4CCCN(C)CC4)nc3n3c2sc2ccccc23)cn1,25.1
5,Nc1ccn(C2OC(CO)C(O)C2(F)F)c(=O)n1 (stereo unspecified) + Cc1cnc(CNC(=O)c2c(=O)c3ccc(N4CCCN(C)CC4)nc3n3c2sc2ccccc23)cn1,15.6
6,O=C(c1cc(Cc2n[nH]c(=O)c3ccccc23)ccc1F)N1CCN(C(=O)C2CC2)CC1 + Cc1cnc(CNC(=O)c2c(=O)c3ccc(N4CCCN(C)CC4)nc3n3c2sc2ccccc23)cn1,18.6
7,O=c1[nH]cc(F)c(=O)[nH]1 + Cc1cnc(CNC(=O)c2c(=O)c3ccc(N4CCCN(C)CC4)nc3n3c2sc2ccccc23)cn1,22.8

# Same assay, conditions: second compound 1 µM; first compound 0.1 µM; active compounds read low
row,SMILES,"viability, T/C [%]"
1,COc1ncnc(C2CC2)c1-c1ncc2cnn(Cc3ccc(-c4nc(C(F)(F)F)cn4C(C)C)cc3)c2n1 + Cc1[nH]c2ccc(F)cc2c1-c1nc2c3cccnc3c3ncccc3c2[nH]1,105
2,C=CC(=O)N1CCN(c2nc(=O)n(-c3c(C)ccnc3C(C)C)c3nc(-c4c(O)cccc4F)c(F)cc23)C(C)C1 (stereo unspecified) + Cc1cnc(CNC(=O)c2c(=O)c3ccc(N4CCCN(C)CC4)nc3n3c2sc2ccccc23)cn1,27.1
3,CC(C)n1c(=O)n(C)c2cnc3cc(F)c(-c4ccc(OCCCN5CCCCC5)nc4)cc3c21 + Cc1cnc(CNC(=O)c2c(=O)c3ccc(N4CCCN(C)CC4)nc3n3c2sc2ccccc23)cn1,21.1
4,COc1ccc([C@@H](O)c2cc(-c3ncnc4cc(N5CCOCC5)ccc34)c(F)cc2Cl)nn1 + Cc1cnc(CNC(=O)c2c(=O)c3ccc(N4CCCN(C)CC4)nc3n3c2sc2ccccc23)cn1,25.6
5,Nc1ccn(C2OC(CO)C(O)C2(F)F)c(=O)n1 (stereo unspecified) + Cc1cnc(CNC(=O)c2c(=O)c3ccc(N4CCCN(C)CC4)nc3n3c2sc2ccccc23)cn1,10.3
6,O=C(c1cc(Cc2n[nH]c(=O)c3ccccc23)ccc1F)N1CCN(C(=O)C2CC2)CC1 + Cc1cnc(CNC(=O)c2c(=O)c3ccc(N4CCCN(C)CC4)nc3n3c2sc2ccccc23)cn1,23.9
7,O=c1[nH]cc(F)c(=O)[nH]1 + Cc1cnc(CNC(=O)c2c(=O)c3ccc(N4CCCN(C)CC4)nc3n3c2sc2ccccc23)cn1,22.4

# Same assay, conditions: second compound 1 µM; first compound 0.316 µM; active compounds read low
row,SMILES,"viability, T/C [%]"
1,COc1ncnc(C2CC2)c1-c1ncc2cnn(Cc3ccc(-c4nc(C(F)(F)F)cn4C(C)C)cc3)c2n1 + Cc1[nH]c2ccc(F)cc2c1-c1nc2c3cccnc3c3ncccc3c2[nH]1,117
